Source: patent US12723063B2, “GIPR-agonist compounds” (Eli Lilly and Company, priority 2019, dated 2026)
*1 amine or outer side, *2 acyl side, *3 side chain or, on linkers, in order; H or OH if unused. Where a SMILES comes first, the peptide text is derived from it. Side-chain parts run from the residue outwards. [ ]: non-standard residue; d: D form. The star is where a group is joined. C20 diacid = O=C(O)CCCCCCCCCCCCCCCCCCC(=O)*; γGlu = O=C(O)[C@H](CCC(=O)[*:2])N[*:1]; αMeL = CC(C)C[C@](C)(N)C(=O)O; AEEA = NCCOCCOCC(=O)O; Aib = CC(C)(N)C(=O)O

Columns and labels:
[1] = target: T1, human GLP-1 receptor (GLP-1R) (Homo sapiens, UniProt P43220); assay: cAMP functional assay (HTRF) in HEK293 cells in presence of 0.1% casein; type: cell-based; settings: HEK293 cells expressing human GLP-1R, geometric mean, read-out: hGLP1R cAMP Rel EC50 nM (SEM, n)
T1 construct: expressed in transfected cells; host or cells: HEK293
Method: (§1) Each receptor over-expressing cell line (20 μl) is treated with the test peptide in DMEM (Gibco Cat #31053) supplemented with 0.1% Casein (Sigma Cat #C4765), 250 μM IBMX, 1× GlutaMAX™ (Gibco Cat #35050), and 20 mM HEPES (HyClone Cat #SH30237.01) in a 20 μl assay volume. After incubating for 60 minutes at room temperature, the resulting increase in intracellular CAMP is quantitatively determined using the CisBio CAMP Dynamic 2 HTRF Assay Kit (62AM4PEJ). The Lysis buffer containing cAMP-d2 conjugate (20 μl) and the antibody anti-cAMP-Eu3+-Cryptate (20 μl) are then added to determine the cAMP level. After incubating 60 minutes at room temperature, HTRF signal is detected with an Envision 2104 plate reader (PerkinElmer). Fluorescent emission at 620 nm and at 665 nm is measured and the ratio between 620 nm and at 665 nm is calculated and then are converted to nM cAMP per well using a cAMP standard curve. Dose response curves of compounds are plotted as the percentage of stimulation normalized to minimum (buffer only) and maximum (maximum concentration of each control ligand) values and analyzed using a four parameter non-linear regression fit with a variable slope (Genedata Screener 13). EC50 is the concentration of compound causing half-maximal simulation in a dose response curve. A relative EC50 value is derived by non-linear regression analysis using the percent maximal response vs, the concentration of peptide added, fitted to a four-parameter logistic equation.
(§2) Intracellular cAMP levels are determined by extrapolation using a standard curve. Dose response curves of compounds are plotted as the percentage of stimulation normalized to minimum (buffer only) and maximum (maximum concentration of each control ligand) values and analyzed using a four-parameter non-linear regression fit with a variable slope (Genedata Screener 13). EC50 is the concentration of compound causing half-maximal simulation in a dose response curve. Each relative EC50 value for the geometric mean calculation is determined from a curve fitting.
(§3) Concentration response curves of compounds are plotted as the percentage of stimulation normalized to minimum (buffer only) and maximum (maximum concentration of each control ligand) values and analyzed using a four-parameter non-linear regression fit with a variable slope (Genedata Screener 13). EC50 is the concentration of compound causing half-maximal simulation in a dose response curve. […] The standard error of the mean is reported:
(§4) [formula] • The log transform accounts for the EC50 values falling on a multiplicative, rather than an arithmetic scale.
(§5) For illustration, as shown by Example 1, the peptide is tested in 8 runs of the hGIPR CAMP assay. […] Accordingly, each Example will use the geometric mean of those values to normalize the Example assay runs.

[2] = target: T2, human glucose-dependent insulinotropic peptide receptor (GIPR) (Homo sapiens, UniProt P48546); assay: as above; type: cell-based; settings: HEK293 cells expressing human GIPR, geometric mean, read-out: hGIPR cAMP Rel EC50 nM (SEM, n)
T2 construct: expressed in transfected cells; host or cells: HEK293
T2 sequence (P48546 22-466): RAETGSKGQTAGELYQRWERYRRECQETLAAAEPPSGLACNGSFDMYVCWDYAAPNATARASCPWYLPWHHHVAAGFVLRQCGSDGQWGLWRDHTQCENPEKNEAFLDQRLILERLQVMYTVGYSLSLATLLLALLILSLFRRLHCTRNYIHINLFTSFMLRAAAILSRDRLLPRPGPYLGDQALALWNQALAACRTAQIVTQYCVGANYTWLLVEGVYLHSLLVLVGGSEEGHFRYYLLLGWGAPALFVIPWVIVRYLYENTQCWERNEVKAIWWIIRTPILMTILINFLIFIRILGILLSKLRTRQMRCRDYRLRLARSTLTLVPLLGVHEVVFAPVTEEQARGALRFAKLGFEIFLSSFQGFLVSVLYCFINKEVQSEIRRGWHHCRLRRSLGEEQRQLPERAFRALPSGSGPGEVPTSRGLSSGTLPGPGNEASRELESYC
Method: as §1, §2, §3, §4, §5

[3] = target: T3, human glucagon receptor (GcgR) (Homo sapiens, UniProt P47871); assay: as above; type: cell-based; settings: HEK293 cells expressing human GcgR, geometric mean, read-out: hGcgR cAMP Rel EC50 nM (SEM, n)
T3 construct: expressed in transfected cells; host or cells: HEK293
Method: as §1, §2, §3, §4, §5

[4] = target: T4, human GLP-1R (Homo sapiens, UniProt P43220); assay: [125I]-GLP-1 binding, SPA with WGA beads, 0.1% bacitracin; settings: geometric mean, read-out: hGLP1R Ki
T4 construct: expressed in transfected cells; crude membranes
Method: (§6) Stably transfected cell lines are prepared by subcloning receptor cDNA into a pcDNA3 expression plasmid and transfected into human embryonic kidney (HEK) 293 (hGcgR and hGLP-1R) or Chinese Hamster Ovary (CHO) (hGIPR) cells followed by selection with Geneticin (hGLP-1R and hGIPR) or hygromycin B (hGcgR).
(§7) Two methods are used for the preparation of crude cell membranes.
(§8) Method 1: Frozen cell pellets are lysed on ice in hypotonic buffer containing 50 mM Tris HCl, pH 7.5, and Roche Complete™ Protease Inhibitors with EDTA. The cell suspension is disrupted using a glass Potter-Elvehjem homogenizer fitted with a Teflon® pestle for 25 strokes. The homogenate is centrifuged at 4° C. at 1100× g for 10 minutes. The supernatant is collected and stored on ice while the pellets are resuspended in homogenization buffer and rehomogenized as described above. The homogenate is centrifuged at 1100× g for 10 minutes. The second supernatant is combined with the first supernatant and centrifuged at 35000× g for 1 hour at 4° C. The resulting membrane pellet is resuspended in homogenization buffer containing protease inhibitors at approximately 1 to 3 mg/mL, quick frozen in liquid nitrogen and stored as aliquots in a −80° C. freezer until use.
(§9) Method 2: Frozen cell pellets are lysed on ice in hypotonic buffer containing 50 mM Tris HCl, pH 7.5, 1 mM MgCl2, Roche Complete™ EDTA-free Protease Inhibitors and 25 units/mL DNAse I (Invitrogen). The cell suspension is disrupted using a glass Potter-Elvehjem homogenizer fitted with a Teflon® pestle for 20 to 25 strokes. The homogenate is centrifuged at 4° C. at 1800× g for 15 minutes. The supernatant is collected and stored on ice while the pellets are resuspended in homogenization buffer (without DNAse I) and rehomogenized as described above. The homogenate is centrifuged at 1800× g for 15 minutes. The second supernatant is combined with the first supernatant and centrifuged an additional time at 1800× g for 15 minutes. The overall supernatant is then centrifuged at 25000× g for 30 minutes at 4° C. The resulting membrane pellet is resuspended in homogenization buffer (without DNAse I) containing protease inhibitors at approximately 1 to 3 mg/mL and stored as aliquots in a −80° C. freezer until use.
The binding buffer contains 25 mM HEPES, pH 7.4, 2.5 mM CaCl2), 1 mM MgCl2, 0.1% (w/v) bacitracin, 0.003% (w/v) TWEEN®-20, and Roche Complete™ Protease Inhibitors without EDTA.
(§10) Data are analyzed using four-parameter (curve maximum, curve minimum, IC50, Hill slope) nonlinear regression routines (Genedata Screener, version 12.0.4, Genedata AG, Basal, Switzerland). […] Values for Ki are reported as the geometric mean, with error expressed as the standard error of the mean (SEM) and n is equal to the number of independent replicates (determined in assays performed on different days). […] SEM is only calculated when […] or greater. Means are expressed as geometric means with the standard error of the mean (SEM) and the number of replicates (n) indicated in parentheses.

[5] = target: T5, human GIPR (Homo sapiens, UniProt P48546); assay: [125I]-GIP binding, SPA with WGA beads, 0.1% bacitracin; settings: geometric mean, read-out: hGIPR Ki
T5 construct: expressed in transfected cells; crude membranes
T5 sequence (P48546 22-466): T2 sequence (P48546 22-466)
Method: as §6, §7, §8, §9
The binding buffer contains 25 mM HEPES, pH 7.4, 2.5 mM CaCl2), 1 mM MgCl2, 0.1% (w/v) bacitracin, 0.003% (w/v) TWEEN®-20, and Roche Complete™ Protease Inhibitors without EDTA. […] Plates are sealed and mixed on a plate shaker (setting 6) for 1 minute and read with a PerkinElmer Trilux MicroBeta® scintillation counter after 2.5 to 12 hours of incubation/settling time at room temperature.
as §10

[6] = system: CD4+ T cells (CD8+ T cell-depleted PBMCs); assay: CD4+ T cell proliferation assay (immunogenicity assessment); type: cell-based, human; settings: 0.33 μM, 7 days
Method: Protein therapeutics that induce less than 30% positive response in the CD4+ T cell proliferation assay are associated with a low risk of immunogenicity. Briefly, to assess the propensity for a clinical immunogenic response to the compounds of Examples 1, 2, 3, 5, and 6, CD8+ T cell-depleted peripheral blood mononuclear cells (PBMCs) are prepared and labeled with carboxyfluorescein diacetate succinimidyl ester (CFSE; Invitrogen) from a cohort of 10 healthy donors with diverse human leukocyte antigen (HLA) class II haplotypes. Each donor is tested in triplicate with 2.0 mL media control, keyhole limpet hemocyanin (KLH: 0.33 μM), and the compounds of Examples 1, 2, 3, 5, and 6 (0.33 μM). Cultures are incubated for 7 days at 37° C. with 5% CO2. On day 7, samples are analyzed by flow cytometry using a BD LSR II Fortessa (Becton Dickinson; Franklin Lakes, NJ), equipped with a high throughput sampler (HTS). Data is analyzed using FlowJo® Software (FlowJo, LLC/TreeStar; Ashland, OR).
• Cell Division Index (“CDI”): proportion of divided CD4+ T cells to the total number of CD4+ T cells in stimulated versus unstimulated samples.

T1 sequence (P43220 24-463): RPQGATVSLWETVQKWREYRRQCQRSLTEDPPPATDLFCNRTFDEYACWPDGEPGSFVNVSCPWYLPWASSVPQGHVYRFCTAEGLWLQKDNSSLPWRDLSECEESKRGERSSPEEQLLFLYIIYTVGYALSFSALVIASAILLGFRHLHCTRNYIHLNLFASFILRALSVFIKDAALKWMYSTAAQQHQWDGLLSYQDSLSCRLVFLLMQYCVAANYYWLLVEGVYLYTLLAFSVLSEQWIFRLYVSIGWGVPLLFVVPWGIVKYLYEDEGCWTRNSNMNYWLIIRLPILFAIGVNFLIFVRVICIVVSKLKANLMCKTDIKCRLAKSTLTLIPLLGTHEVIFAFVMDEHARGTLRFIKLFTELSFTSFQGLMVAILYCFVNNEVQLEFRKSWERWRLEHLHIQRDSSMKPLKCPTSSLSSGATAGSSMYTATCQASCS
T3 sequence (P47871 26-477): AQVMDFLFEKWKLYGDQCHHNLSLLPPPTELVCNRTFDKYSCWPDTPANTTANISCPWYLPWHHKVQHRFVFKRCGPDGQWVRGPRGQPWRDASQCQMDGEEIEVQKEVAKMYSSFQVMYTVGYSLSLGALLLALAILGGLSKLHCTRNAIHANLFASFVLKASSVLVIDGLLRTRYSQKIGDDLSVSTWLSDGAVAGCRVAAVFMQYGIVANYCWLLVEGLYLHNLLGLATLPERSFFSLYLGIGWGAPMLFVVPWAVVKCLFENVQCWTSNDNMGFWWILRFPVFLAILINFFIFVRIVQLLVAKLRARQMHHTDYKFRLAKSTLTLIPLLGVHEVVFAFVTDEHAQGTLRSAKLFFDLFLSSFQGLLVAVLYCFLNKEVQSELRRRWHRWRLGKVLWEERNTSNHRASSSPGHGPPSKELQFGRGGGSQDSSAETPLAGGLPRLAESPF
T4 sequence (P43220 24-463): as the sequence (P43220 24-463) above

## CC[C@H](C)[C@H](NC(=O)[C@H](Cc1ccccc1)NC(=O)[C@@H](NC(=O)CNC(=O)[C@H](CCC(=O)O)NC(=O)C(C)(C)NC(=O)[C@@H](N)Cc1ccc(O)cc1)[C@@H](C)O)C(=O)N[C@@H](CO)C(=O)N[C@@H](CC(=O)O)C(=O)N[C@@H](Cc1ccc(O)cc1)C(=O)N[C@@H](CO)C(=O)N[C@H](C(=O)N[C@@](C)(CC(C)C)C(=O)N[C@@H](CC(C)C)C(=O)N[C@@H](CC(=O)O)C(=O)N[C@@H](CCCCN)C(=O)N[C@@H](CCCCNC(=O)COCCOCCNC(=O)COCCOCCNC(=O)CC[C@H](NC(=O)CCCCCCCCCCCCCCCCCCC(=O)O)C(=O)O)C(=O)N[C@@H](Cc1c[nH]cn1)C(=O)N[C@@H](CCC(N)=O)C(=O)NC(C)(C)C(=O)N[C@@H](CC(=O)O)C(=O)N[C@@H](Cc1ccccc1)C(=O)N[C@H](C(=O)N[C@@H](CCC(=O)O)C(=O)N[C@@H](Cc1ccc(O)cc1)C(=O)N[C@@H](CC(C)C)C(=O)N[C@@H](CC(C)C)C(=O)N[C@@H](CCC(=O)O)C(=O)N[C@@H](CCC(N)=O)C(=O)NCC(=O)N1CCC[C@H]1C(=O)N[C@@H](CO)C(=O)N[C@@H](CO)C(=O)NCC(=O)N[C@@H](C)C(=O)N1CCC[C@H]1C(=O)N1CCC[C@H]1C(=O)N1CCC[C@H]1C(=O)N[C@@H](CO)C(N)=O)C(C)C)[C@@H](C)CC [Example 67] (H-Y[Aib]EGTFISDYSI[αMeL]LDKK([AEEA-AEEA-γGlu-C20 diacid])HQ[Aib]DFVEYLLEQGPSSGAPPPS-NH2)
[1]
  EC50: > 5000 nM
[2]
  EC50: 0.0627 nM
[3]
  EC50: > 5000 nM

## CC[C@H](C)[C@H](NC(=O)[C@H](CCCCN)NC(=O)[C@H](CC(=O)O)NC(=O)[C@H](CC(C)C)NC(=O)[C@](C)(CC(C)C)NC(=O)[C@@H](NC(=O)[C@H](CO)NC(=O)[C@H](Cc1ccc(O)cc1)NC(=O)[C@H](CC(=O)O)NC(=O)[C@H](CO)NC(=O)[C@@H](NC(=O)[C@H](Cc1ccccc1)NC(=O)[C@@H](NC(=O)CNC(=O)[C@H](CCC(=O)O)NC(=O)C(C)(C)NC(=O)[C@@H](N)Cc1ccc(O)cc1)[C@@H](C)O)[C@@H](C)CC)[C@@H](C)CC)C(=O)N[C@@H](CCCNC(=N)N)C(=O)N[C@@H](CCC(N)=O)C(=O)NC(C)(C)C(=O)N[C@@H](CC(=O)O)C(=O)N[C@@H](Cc1ccccc1)C(=O)N[C@H](C(=O)N[C@@H](CCC(=O)O)C(=O)N[C@@H](Cc1ccc(O)cc1)C(=O)N[C@@H](CCCCNC(=O)COCCOCCNC(=O)COCCOCCNC(=O)CC[C@H](NC(=O)CCCCCCCCCCCCCCCCCCC(=O)O)C(=O)O)C(=O)N[C@@H](CC(C)C)C(=O)N[C@@H](CCC(=O)O)C(=O)N[C@@H](C)C(=O)NCC(=O)N1CCC[C@H]1C(=O)N[C@@H](CO)C(=O)N[C@@H](CO)C(=O)NCC(=O)N[C@@H](C)C(=O)N1CCC[C@H]1C(=O)N1CCC[C@H]1C(=O)N1CCC[C@H]1C(=O)N[C@@H](CO)C(N)=O)C(C)C [Example 118] (H-Y[Aib]EGTFISDYSI[αMeL]LDKIRQ[Aib]DFVEYK([AEEA-AEEA-γGlu-C20 diacid])LEAGPSSGAPPPS-NH2)
[1]
  EC50: > 5000 nM
[2]
  EC50: 0.0611 nM
[3]
  EC50: > 5000 nM
[4]
  Ki: > 920 nM
[5]
  Ki: 0.0696 nM

## keyhole limpet hemocyanin [KLH, reference compound]
[6]; 10 healthy donors, positive response CDI>2.5
  % Donor Response (n = 10): 100%
[6]; Cell Division Index
  Median Response Strength in positive donors (CDI): 164.285 (n = 10)
